In US7408066B2, “Carbon-linked substituted piperidines and derivatives thereof useful as histamine H3 antagonists” (Schering Corproation, priority 2005, dated 2008):

Assays:
[1] = molecular target: T1, H3 receptors (recombinant human receptor, expressed in HEK-293 cells) (Homo sapiens, UniProt Q9Y5N1); assay: H3-receptor binding assay, recombinant human receptor
T1 construct: expressed in transfected cells; host or cells: HEK-293 (human embryonic kidney) cells
Experimental: (§1) General Procedure for H3-Receptor Binding Assay
(§2) The source of the H3 receptors in this experiment was guinea pig brain. Alternatively, the source of H3 receptors was recombinant human receptor, expressed in HEK-293 (human embryonic kidney) cells.
All compounds to be tested were dissolved in DMSO and then diluted into the binding buffer (50 mM Tris, pH 7.5) such that the final concentration was 2 μg/ml with 0.1% DMSO. Membranes were then added (400 μg of protein, 5 μg in the case of recombinant human receptor) to the reaction tubes. The reaction was started by the addition of 3 nM [^3H]R-α-methyl histamine (8.8 Ci/mmol) or 3 nM [^3H]N^α-methyl histamine (80 Ci/mmol) and continued under incubation at 30° C. for 30 min. Bound ligand was separated from unbound ligand by filtration, and the amount of radioactive ligand bound to the membranes was quantitated by liquid scintillation spectrometry. All incubations were performed in duplicate and the standard error was always less than 10%. Compounds that inhibited more than 70% of the specific binding of radioactive ligand to the receptor were serially diluted to determine a Ki (nM).

[2] = molecular target: T2, H3 receptors (guinea pig brain) (Cavia porcellus, UniProt Q9JI35); assay: H3-receptor binding assay, guinea pig brain membranes
T2 construct: The brain tissue was homogenized with a solution of 50 mM Tris, pH 7.5; from tissue; host or cells: guinea pig brain membranes
T2 sequence (Q9JI35 whole entry): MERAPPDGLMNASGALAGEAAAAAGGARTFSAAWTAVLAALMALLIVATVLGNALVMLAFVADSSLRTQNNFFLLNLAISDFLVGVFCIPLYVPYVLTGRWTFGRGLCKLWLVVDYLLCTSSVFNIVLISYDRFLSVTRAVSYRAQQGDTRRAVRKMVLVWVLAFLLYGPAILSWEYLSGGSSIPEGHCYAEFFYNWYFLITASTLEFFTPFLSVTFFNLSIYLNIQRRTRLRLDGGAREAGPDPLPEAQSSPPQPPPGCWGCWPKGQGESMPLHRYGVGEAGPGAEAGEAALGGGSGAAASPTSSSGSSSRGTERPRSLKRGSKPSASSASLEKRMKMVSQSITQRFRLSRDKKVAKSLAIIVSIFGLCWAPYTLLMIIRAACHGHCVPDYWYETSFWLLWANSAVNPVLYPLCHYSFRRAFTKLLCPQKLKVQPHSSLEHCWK
Experimental: as §1, §2
The animals weighed 400-600 g. The brain tissue was homogenized with a solution of 50 mM Tris, pH 7.5. The final concentration of tissue in the homogenization buffer was 10% w/v. The homogenates were centrifuged at 1,000×g for 10 min. in order to remove clumps of tissue and debris. The resulting supernatants were then centrifuged at 50,000×g for 20 min. in order to sediment the membranes, which were next washed three times in homogenization buffer (50,000×g for 20 min. each). The membranes were frozen and stored at −70° C. until needed.
All compounds to be tested were dissolved in DMSO and then diluted into the binding buffer (50 mM Tris, pH 7.5) such that the final concentration was 2 μg/ml with 0.1% DMSO. Membranes were then added (400 μg of protein, 5 μg in the case of recombinant human receptor) to the reaction tubes. […] Bound ligand was separated from unbound ligand by filtration, and the amount of radioactive ligand bound to the membranes was quantitated by liquid scintillation spectrometry. […]

T1 sequence (Q9Y5N1 whole entry): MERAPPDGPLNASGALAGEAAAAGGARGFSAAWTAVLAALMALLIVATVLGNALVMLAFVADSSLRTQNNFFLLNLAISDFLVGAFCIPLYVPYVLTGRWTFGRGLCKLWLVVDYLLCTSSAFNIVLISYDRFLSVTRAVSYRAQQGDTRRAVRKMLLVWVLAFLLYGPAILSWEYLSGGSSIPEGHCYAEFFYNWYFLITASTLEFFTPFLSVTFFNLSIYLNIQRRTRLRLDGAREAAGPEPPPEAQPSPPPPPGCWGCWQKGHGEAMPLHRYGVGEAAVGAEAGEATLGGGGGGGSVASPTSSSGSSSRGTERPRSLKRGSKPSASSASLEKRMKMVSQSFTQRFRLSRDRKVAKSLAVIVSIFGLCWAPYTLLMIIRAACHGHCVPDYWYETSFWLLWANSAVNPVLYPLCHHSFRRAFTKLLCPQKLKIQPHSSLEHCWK

Row | Ki [1] [pM] | Ki [2] [pM] | Compound
1 | 1100 | – | CNC(=O)[C@H]1C[C@@]1(c1ccc(Cl)cc1)C1CCN(C(=O)C2CCN(Cc3ccnc(N)c3)CC2)CC1 [Example 88]
2 | – | 350 | CS(=O)(=O)NC(c1ccccn1)C1CCN(C(=O)C2CCN(Cc3ccnc(N)c3)CC2)CC1 (centres unmarked) [Example 92]
